Measurements reported in ChEMBL document CHEMBL4371076 (J Med Chem, 2019).
Calls of active or inactive are those of the source. The rule behind the calls is not given here.

Columns and labels:
[1] = Permeability of the compound at pH 5.5 by PAMPA; type: ADME; settings: read-out: permeability
Cytochrome P450 2C19 [2] = biological target: T1, Cytochrome P450 2C19 (Homo sapiens, UniProt P33261); experiment: Inhibition of CYP2C19 in human liver microsomes; type: ADME; settings: human, microsomes
[3] = biological target: T2, Sodium channel protein type 9 subunit alpha (Homo sapiens, UniProt Q15858); experiment: Inhibition of recombinant human Nav1.7 expressed in HEK293 cells at -70 mV holding potential by patch clamp electrophysiology method; type: cell-based
T2 sequence (Q15858 whole entry): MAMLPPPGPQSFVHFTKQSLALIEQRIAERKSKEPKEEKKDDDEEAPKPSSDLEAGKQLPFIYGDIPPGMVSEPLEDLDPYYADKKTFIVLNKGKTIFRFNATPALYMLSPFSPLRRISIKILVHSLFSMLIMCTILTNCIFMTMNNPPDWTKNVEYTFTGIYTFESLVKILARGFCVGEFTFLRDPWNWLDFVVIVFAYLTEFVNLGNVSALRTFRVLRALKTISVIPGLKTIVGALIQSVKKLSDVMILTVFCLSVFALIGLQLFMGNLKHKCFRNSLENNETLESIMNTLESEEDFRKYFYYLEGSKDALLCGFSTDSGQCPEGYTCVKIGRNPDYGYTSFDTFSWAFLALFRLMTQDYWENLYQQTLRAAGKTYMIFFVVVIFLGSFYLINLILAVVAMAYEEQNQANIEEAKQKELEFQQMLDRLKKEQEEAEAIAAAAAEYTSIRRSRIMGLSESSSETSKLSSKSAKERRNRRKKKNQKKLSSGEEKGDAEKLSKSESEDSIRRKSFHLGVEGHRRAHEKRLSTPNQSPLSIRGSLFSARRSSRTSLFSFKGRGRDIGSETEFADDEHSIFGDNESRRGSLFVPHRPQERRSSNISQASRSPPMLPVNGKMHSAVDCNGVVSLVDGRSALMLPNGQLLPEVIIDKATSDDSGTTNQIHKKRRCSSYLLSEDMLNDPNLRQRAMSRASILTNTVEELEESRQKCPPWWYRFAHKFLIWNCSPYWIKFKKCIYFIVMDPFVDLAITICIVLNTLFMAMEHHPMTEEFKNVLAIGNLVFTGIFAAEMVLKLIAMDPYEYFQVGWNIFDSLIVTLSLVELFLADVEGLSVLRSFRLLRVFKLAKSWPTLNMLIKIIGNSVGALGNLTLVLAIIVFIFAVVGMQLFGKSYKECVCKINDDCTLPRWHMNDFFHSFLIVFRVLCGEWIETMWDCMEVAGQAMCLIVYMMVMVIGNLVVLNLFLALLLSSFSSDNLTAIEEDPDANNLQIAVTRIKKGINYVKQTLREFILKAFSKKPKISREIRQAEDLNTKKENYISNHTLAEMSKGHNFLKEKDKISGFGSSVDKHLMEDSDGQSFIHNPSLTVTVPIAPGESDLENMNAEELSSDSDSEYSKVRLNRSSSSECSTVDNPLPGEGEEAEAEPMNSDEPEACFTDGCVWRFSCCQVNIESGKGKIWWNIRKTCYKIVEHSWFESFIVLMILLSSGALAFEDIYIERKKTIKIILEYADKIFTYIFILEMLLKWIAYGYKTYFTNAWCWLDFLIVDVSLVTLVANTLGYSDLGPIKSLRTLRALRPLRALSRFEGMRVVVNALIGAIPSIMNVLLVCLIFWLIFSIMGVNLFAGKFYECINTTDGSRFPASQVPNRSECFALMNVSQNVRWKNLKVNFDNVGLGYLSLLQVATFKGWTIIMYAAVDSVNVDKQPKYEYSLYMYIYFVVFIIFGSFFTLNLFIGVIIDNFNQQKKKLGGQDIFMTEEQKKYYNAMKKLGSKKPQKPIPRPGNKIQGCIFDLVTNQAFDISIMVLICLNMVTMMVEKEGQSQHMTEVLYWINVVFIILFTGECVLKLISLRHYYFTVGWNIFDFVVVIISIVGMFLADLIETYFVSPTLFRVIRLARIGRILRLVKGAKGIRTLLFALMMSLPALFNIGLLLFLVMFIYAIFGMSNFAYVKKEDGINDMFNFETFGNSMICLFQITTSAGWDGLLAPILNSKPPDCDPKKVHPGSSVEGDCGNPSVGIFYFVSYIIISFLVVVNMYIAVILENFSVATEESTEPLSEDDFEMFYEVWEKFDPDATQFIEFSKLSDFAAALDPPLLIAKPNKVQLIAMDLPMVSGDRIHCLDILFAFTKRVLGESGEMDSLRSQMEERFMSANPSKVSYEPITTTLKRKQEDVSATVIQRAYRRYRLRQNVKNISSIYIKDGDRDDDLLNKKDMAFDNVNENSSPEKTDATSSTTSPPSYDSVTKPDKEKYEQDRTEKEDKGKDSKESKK

[4] = Toxicity in CD1 mouse model of formalin-induced nociception assessed as hypothermia at 30 mg/kg, po; type: organism-based; settings: in vivo
[5] = Permeability from basolateral to apical side in human Caco2 cells; type: ADME, cell-based; settings: Caco-2, read-out: permeability
[6] = Fraction unbound in human plasma; type: ADME, cell-free
Cytochrome P450 2C8 [7] = biological target: T3, Cytochrome P450 2C8 (Homo sapiens, UniProt P10632); experiment: Inhibition of CYP2C8 in human liver microsomes; type: ADME; settings: human, microsomes
T3 sequence (P10632 whole entry): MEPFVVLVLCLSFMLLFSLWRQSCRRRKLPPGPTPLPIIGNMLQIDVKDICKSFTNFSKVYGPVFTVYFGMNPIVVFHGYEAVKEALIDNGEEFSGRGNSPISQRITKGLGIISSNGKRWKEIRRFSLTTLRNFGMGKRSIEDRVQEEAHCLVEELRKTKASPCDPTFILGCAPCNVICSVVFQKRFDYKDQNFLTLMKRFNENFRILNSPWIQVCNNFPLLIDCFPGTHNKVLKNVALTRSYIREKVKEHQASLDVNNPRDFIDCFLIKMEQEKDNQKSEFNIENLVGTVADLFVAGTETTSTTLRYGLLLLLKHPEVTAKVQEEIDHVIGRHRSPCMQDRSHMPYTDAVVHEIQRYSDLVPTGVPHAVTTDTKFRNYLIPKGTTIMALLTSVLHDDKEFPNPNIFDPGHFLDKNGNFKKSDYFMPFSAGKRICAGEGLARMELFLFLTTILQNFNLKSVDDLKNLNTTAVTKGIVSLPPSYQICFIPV

Cytochrome P450 2D6 [8] = biological target: T4, Cytochrome P450 2D6 (Homo sapiens, UniProt P10635); experiment: Inhibition of CYP2D6 in human liver microsomes; type: ADME; settings: human, microsomes
T4 sequence (P10635 whole entry): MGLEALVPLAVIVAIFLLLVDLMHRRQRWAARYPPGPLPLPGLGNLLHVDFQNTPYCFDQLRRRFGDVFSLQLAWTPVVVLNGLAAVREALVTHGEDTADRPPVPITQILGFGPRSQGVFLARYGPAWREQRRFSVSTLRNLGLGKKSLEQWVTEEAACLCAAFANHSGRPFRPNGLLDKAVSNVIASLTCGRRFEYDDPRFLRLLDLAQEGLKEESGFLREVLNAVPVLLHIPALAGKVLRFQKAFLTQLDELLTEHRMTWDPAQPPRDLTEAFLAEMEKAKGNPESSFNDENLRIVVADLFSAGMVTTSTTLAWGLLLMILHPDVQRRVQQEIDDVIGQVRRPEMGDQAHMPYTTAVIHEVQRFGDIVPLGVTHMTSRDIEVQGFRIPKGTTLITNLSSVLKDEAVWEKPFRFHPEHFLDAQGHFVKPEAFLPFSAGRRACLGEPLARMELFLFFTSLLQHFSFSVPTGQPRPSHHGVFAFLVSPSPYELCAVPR

Cytochrome P450 2B6 [9] = biological target: T5, Cytochrome P450 2B6 (Homo sapiens, UniProt P20813); experiment: Inhibition of CYP2B6 in human liver microsomes; type: ADME; settings: human, microsomes
T5 sequence (P20813 whole entry): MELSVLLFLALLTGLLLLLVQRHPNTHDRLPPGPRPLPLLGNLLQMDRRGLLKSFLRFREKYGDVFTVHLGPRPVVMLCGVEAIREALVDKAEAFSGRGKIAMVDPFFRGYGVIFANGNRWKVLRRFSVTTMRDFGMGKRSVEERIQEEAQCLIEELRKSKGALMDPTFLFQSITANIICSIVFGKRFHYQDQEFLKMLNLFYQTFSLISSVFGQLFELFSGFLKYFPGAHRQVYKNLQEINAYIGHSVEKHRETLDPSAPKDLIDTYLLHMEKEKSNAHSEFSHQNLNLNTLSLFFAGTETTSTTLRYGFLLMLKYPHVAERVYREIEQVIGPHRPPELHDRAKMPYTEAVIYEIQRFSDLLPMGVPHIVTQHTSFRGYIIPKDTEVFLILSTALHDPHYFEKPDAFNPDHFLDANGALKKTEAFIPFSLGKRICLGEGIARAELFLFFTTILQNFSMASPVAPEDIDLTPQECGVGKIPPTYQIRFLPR

[10] = Permeability from apical to basolateral side in human Caco2 cells; type: ADME, cell-based; settings: Caco-2, read-out: permeability
[11] = biological target: T6, Sodium channel protein type 9 subunit alpha (Mus musculus, UniProt Q62205); experiment: Inhibition of Nav1.7 in mouse DRG neurons at -70 mV holding potential by patch clamp electrophysiology method
Cytochrome P450 2C9 [12] = biological target: T7, Cytochrome P450 2C9 (Homo sapiens, UniProt P11712); experiment: Time-dependant inhibition of CYP2C9 in human liver microsomes; type: ADME
T7 sequence (P11712 whole entry): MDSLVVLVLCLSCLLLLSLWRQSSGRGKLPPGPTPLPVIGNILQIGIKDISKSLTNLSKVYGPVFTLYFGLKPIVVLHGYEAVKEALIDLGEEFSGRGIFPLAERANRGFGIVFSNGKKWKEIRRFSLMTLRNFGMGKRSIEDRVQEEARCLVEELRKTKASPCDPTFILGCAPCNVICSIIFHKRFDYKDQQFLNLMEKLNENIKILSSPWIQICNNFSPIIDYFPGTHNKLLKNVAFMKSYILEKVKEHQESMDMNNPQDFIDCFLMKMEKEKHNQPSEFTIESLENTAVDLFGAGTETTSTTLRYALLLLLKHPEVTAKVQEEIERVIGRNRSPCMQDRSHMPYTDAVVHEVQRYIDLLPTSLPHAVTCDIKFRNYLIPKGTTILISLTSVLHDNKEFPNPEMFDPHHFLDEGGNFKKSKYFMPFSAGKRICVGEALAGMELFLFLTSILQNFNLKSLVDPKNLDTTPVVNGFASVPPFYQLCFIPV

[13] = Unbound plasma concentration in CD1 mouse model of formalin-induced nociception at 30 mg/kg, po; type: ADME, organism-based; settings: in vivo
[14] = Metabolic stability in rat liver microsomes assessed as parent compound remaining at 0.5 uM after 10 mins; type: ADME, Microsome; settings: read-out: Stability
Cytochrome P450 2C8 [15] = biological target: T3, Cytochrome P450 2C8; experiment: Time-dependant inhibition of CYP2C8 in human liver microsomes; type: ADME
[16] = Toxicity in CD1 mouse model of formalin-induced nociception assessed as prostration or sedation at 30 mg/kg, po; type: organism-based; settings: in vivo
[17] = Fraction unbound in mouse plasma; type: ADME, cell-free
[18] = Efflux ratio of permeability in human Caco2 cells; type: ADME, cell-based; settings: Caco-2
[19] = Permeability of the compound at pH 7.4 by PAMPA; type: ADME; settings: read-out: permeability
Mus musculus [20] = experiment: Analgesic activity in CD1 mouse model of formalin-induced nociception assessed as reduction in formalin-evoked paw flinching/licking response during first phase at 30 mg/kg, po pretreated for 30 mins followed by formalin treatment and measured during first 5 mins post formalin injection; type: functional, organism-based
Cytochrome P450 2C19 [21] = biological target: T1, Cytochrome P450 2C19; experiment: Time-dependant inhibition of CYP2C19 in human liver microsomes; type: ADME
Cytochrome P450 2B6 [22] = biological target: T5, Cytochrome P450 2B6; experiment: Time-dependant inhibition of CYP2B6 in human liver microsomes; type: ADME
Mus musculus [23] = experiment: Analgesic activity in CD1 mouse model of formalin-induced nociception assessed as reduction in formalin-evoked paw flinching/licking response during second phase at 30 mg/kg, po pretreated for 30 mins followed by formalin treatment and measured during 15 to 45 mins post formalin injection; type: functional, organism-based
Cytochrome P450 2D6 [24] = biological target: T4, Cytochrome P450 2D6; experiment: Time-dependant inhibition of CYP2D6 in human liver microsomes; type: ADME
[25] = biological target: T6, Sodium channel protein type 9 subunit alpha; experiment: Inhibition of recombinant mouse Nav1.7 expressed in HEK293 cells at -70 mV holding potential by patch clamp electrophysiology method; type: cell-based
Cytochrome P450 2C9 [26] = biological target: T7, Cytochrome P450 2C9; experiment: Inhibition of CYP2C9 in human liver microsomes; type: ADME; settings: human, microsomes
[27] = Metabolic stability in mouse liver microsomes assessed as parent compound remaining at 0.5 uM after 10 mins; type: ADME, Microsome; settings: read-out: Stability
[28] = Metabolic stability in human liver microsomes assessed as parent compound remaining at 0.5 uM after 10 mins; type: ADME, Microsome; settings: read-out: Stability
[29] = Plasma concentration in CD1 mouse model of formalin-induced nociception at 30 mg/kg, po; type: ADME, organism-based; settings: read-out: Cp, in vivo
Cytochrome P450 3A4 [30] = biological target: T8, Cytochrome P450 3A4 (Homo sapiens, UniProt P08684); experiment: Time-dependant inhibition of CYP3A4 in human liver microsomes; type: ADME
T8 sequence (P08684 whole entry): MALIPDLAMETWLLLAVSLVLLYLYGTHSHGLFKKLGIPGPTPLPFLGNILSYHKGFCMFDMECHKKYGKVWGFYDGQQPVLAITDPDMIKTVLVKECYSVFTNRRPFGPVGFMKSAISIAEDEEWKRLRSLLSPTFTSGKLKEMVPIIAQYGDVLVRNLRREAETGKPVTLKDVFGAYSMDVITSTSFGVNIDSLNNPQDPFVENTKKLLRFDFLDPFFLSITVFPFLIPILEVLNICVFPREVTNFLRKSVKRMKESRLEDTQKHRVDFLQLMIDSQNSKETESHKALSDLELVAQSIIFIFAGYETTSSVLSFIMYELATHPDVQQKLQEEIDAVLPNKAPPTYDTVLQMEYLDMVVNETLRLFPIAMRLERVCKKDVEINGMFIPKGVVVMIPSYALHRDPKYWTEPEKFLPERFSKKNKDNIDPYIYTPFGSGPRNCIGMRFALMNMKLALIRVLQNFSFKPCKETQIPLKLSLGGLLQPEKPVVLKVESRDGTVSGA

Cytochrome P450 3A4 [31] = biological target: T8, Cytochrome P450 3A4; experiment: Inhibition of CYP3A4 in human liver microsomes; type: ADME; settings: human, microsomes
[32] = biological target: T2, Sodium channel protein type 9 subunit alpha; experiment: Inhibition of human Nav1.7 expressed in HEK293 cells after 600 secs at -60 mV holding potential by ion works barracuda population patch clamp method; type: cell-based

T1 sequence (P33261 whole entry): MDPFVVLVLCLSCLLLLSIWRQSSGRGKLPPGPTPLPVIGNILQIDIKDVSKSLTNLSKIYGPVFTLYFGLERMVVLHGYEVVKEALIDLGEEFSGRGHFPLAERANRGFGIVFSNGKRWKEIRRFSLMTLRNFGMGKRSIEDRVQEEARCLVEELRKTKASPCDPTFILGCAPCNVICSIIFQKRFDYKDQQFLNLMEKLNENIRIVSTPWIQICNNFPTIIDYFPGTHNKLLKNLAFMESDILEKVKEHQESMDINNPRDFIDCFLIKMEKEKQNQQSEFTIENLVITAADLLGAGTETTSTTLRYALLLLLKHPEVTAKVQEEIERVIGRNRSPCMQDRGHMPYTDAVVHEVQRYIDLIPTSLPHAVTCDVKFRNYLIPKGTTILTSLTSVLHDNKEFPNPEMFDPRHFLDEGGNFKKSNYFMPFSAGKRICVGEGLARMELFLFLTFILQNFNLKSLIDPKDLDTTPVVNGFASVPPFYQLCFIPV

| SMILES | inhibition (INH) (Cytochrome P450 2C19 [2]) | IC50 [3] | Papp B→A [5] | fraction unbound [6] | inhibition (INH) (Cytochrome P450 2C8 [7]) | inhibition (INH) (Cytochrome P450 2D6 [8]) | inhibition (INH) (Cytochrome P450 2B6 [9]) | Papp A→B [10] | TDI (Cytochrome P450 2C9 [12]) | remaining at 10 min, 0.5 µM [14] | TDI (Cytochrome P450 2C8 [15]) | fraction unbound [17] | efflux ratio [18] | Papp [19] | TDI (Cytochrome P450 2C19 [21]) | TDI (Cytochrome P450 2B6 [22]) | TDI (Cytochrome P450 2D6 [24]) | inhibition (INH) (Cytochrome P450 2C9 [26]) | remaining at 10 min, 0.5 µM [27] | remaining at 10 min, 0.5 µM [28] | also measured |
| --- | --- | --- | --- | --- | --- | --- | --- | --- | --- | --- | --- | --- | --- | --- | --- | --- | --- | --- | --- | --- | --- |
| Cn1cc(-c2ccc(C(F)F)cc2)c2cc(F)c(C(=O)NS(=O)(=O)C3CC3)cc21 | Not Active | 12 nM | 19.5 ×10⁻⁶ cm/s | 0.003 | Not Active | Not Active | Not Active | 8.1 ×10⁻⁶ cm/s | Not Active | 82% | Not Active | 0.007 | 2.4 | 6 ×10⁻⁶ cm/s | Not Active | Not Active | Not Active | Not Active | 86% | 93% | Papp [1]: 32.5 ×10⁻⁶ cm/s; Activity [4]: Non-Toxic; IC50 [11]: 12 nM; Cp(f) [13]: 1.211 µM; Activity [16]: Non-Toxic; Activity (Mus musculus [20]): inactive; Activity (Mus musculus [23]): inactive; IC50 [25]: 231 nM; concentration [29]: 173 µM; TDI (Cytochrome P450 3A4 [30]): Not Active; inhibition (INH) (Cytochrome P450 3A4 [31]): Not Active |
| CC(C)COc1ccc(-c2cn(C)c3cc(C(=O)NS(=O)(=O)C4CC4)c(F)cc23)cn1 | Not Active | 19 nM | 18.9 ×10⁻⁶ cm/s | 0.024 | Not Active | Not Active | Not Active | 12 ×10⁻⁶ cm/s | Not Active | 78% | Not Active | 0.006 | 1.6 | 25.4 ×10⁻⁶ cm/s | Not Active | Not Active | Not Active | Not Active | 98% | 100% | Papp [1]: 85.1 ×10⁻⁶ cm/s; Activity [4]: Non-Toxic; IC50 [11]: 24 nM; Cp(f) [13]: 0.792 µM; Activity [16]: Non-Toxic; Activity (Mus musculus [20]): inactive; Activity (Mus musculus [23]): inactive; IC50 [25]: 37 nM; concentration [29]: 132 µM; TDI (Cytochrome P450 3A4 [30]): Not Active; inhibition (INH) (Cytochrome P450 3A4 [31]): Not Active |
| Cn1cc(-c2ccc(C(F)(F)F)cc2)c2ccc(C(=O)NS(C)(=O)=O)cc21 | Not Active | 96 nM | 7.6 ×10⁻⁶ cm/s | < 0.001 | Not Active | Not Active | Not Active | < 1.5 ×10⁻⁶ cm/s | Not Active | 74% | Not Active | < 0.001 | > 5.1 | 17.1 ×10⁻⁶ cm/s | Not Active | Not Active | Not Active | Not Active | 54% | 100% | Papp [1]: 97.2 ×10⁻⁶ cm/s; IC50 [32]: 88 nM; TDI (Cytochrome P450 3A4 [30]): Not Active; inhibition (INH) (Cytochrome P450 3A4 [31]): Not Active |
| Cn1cc(-c2cnc(OCC3CC3)c(Cl)c2)c2ccc(C(=O)NS(=O)(=O)C3CC3)cc21 | Not Active | 27 nM | 11.4 ×10⁻⁶ cm/s | < 0.001 | Not Active | Not Active | Not Active | < 1.5 ×10⁻⁶ cm/s | Not Active | 77% | Not Active | 0.002 | > 7.6 | 39.1 ×10⁻⁶ cm/s | Not Active | Not Active | Not Active | Not Active | 93% | 97% | IC50 [32]: 82 nM; TDI (Cytochrome P450 3A4 [30]): Not Active; inhibition (INH) (Cytochrome P450 3A4 [31]): Not Active |
